US8815881B2 (Hoffmann-La Roche Inc., priority 2010, dated 2014)

What follows are compounds tested against BACE2 enzyme ectodomain (Homo sapiens (Human), UniProt Q9Y5Z0) (assay: Fluorescent-peptide cleavage assay for BACE2 inhibition). Settings: assay b): fluorescent-peptide cleavage, pH 4.5 (superscript b).
Sequence of BACE2 enzyme ectodomain (Q9Y5Z0 63-473): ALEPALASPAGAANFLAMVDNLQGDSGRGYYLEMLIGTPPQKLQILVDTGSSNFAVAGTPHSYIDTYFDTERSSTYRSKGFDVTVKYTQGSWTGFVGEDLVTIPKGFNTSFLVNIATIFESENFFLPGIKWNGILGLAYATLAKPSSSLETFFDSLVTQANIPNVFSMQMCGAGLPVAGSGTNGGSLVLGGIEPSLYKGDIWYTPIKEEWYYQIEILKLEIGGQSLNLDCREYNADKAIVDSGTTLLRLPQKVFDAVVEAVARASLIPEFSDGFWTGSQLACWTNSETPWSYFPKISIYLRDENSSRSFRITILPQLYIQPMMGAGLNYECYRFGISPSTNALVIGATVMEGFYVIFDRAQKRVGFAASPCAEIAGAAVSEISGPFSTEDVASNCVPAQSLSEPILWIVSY
Type: biochemical
Experimental: b) Fluorescent-Peptide Cleavage Assay for BACE2 Inhibition
BACE2 enzyme ectodomain (derived from plasmid “pET17b-T7-hu proBACE2”) was prepared as described in Ostermann et al., “Crystal Structure of Human BACE2 in Complex with a Hydroxyethylamine Transition-state Inhibitor”, Journal of Molecular Biology 2006, 355, 249-261. The pro-enzyme was stored at 4° C. at a concentration of 70 μg/ml.
A fluorescent peptide with the amino acid sequence WS EVNLD AEFRC-MR121 was synthesised and a stock solution of 1.5 mM in DMSO prepared and stored at −20° C. MR121 is a fluorophore with an excitation wavelength of 630 nm and emission wavelength of 695 nm. The MR121 fluorescence is quenched by the N-terminal tryptophan until the peptide is cleaved by BACE2.
Assays were all made in a Corning 384-well black polystyrene non-binding surface microtitre plate with clear flat bottom and using a Plate:Vision (Perkin Elmer) fluorescence reader. To perform the assay an 80 nM solution of BACE2 was prepared in assay buffer (assay buffer is 100 mM Na-acetate; 20 mM EDTA; 0.05% BSA; pH 4.5) and incubated at room temperature for 1 hour to activate the enzyme. 39 μl of the activated BACE2 was placed in each assay well, followed by 1 μl compound to be tested at an appropriate concentration in 100% DMSO. The plate was then mixed and incubated for 10 minutes at room temperature. To start the assay, 10 μl of a 1.5 μM solution fluorescent peptide in assay buffer was added and the fluorescence intensity in the assay mixture measured at 695 nm with an excitation wavelength of 630 nm for 30 minutes.
The assay readout is the rate of change of fluorescence intensity giving a relative measure of BACE2 activity. Small values correspond to high inhibition and larger values to low inhibition. To determine IC50 values (i.e. the concentration inhibiting the enzyme activity by 50%) of the compound for BACE2, typically, 15 assays were made with a range of concentrations chosen empirically to give low, high and intermediate inhibition of the protease. IC50 values were determined using these assay values generated for a range of inhibitor concentrations and the curve fitting software XLfit (IDBS) using the Sigmoidal Dose-Response Model.
`CN1C(=O)C(C)(C)[C@@](C)(c2cc(Nc3cc(C#N)ccc3F)ccc2F)N=C1N` [Example 165, (S)-3-(3-(2-Amino-1,4,5,5-tetramethyl-6-oxo-1,4,5,6-tetrahydropyrimidin-4-yl)-4-fluorophenylamino)-4-fluorobenzonitrile] gave an IC50 of 0.039 µM.
For `COc1cc(Cl)c(C)cc1Nc1ccc(F)c([C@@]2(C)N=C(N)N(C)C(=O)C2(C)C)c1` [Example 154, (S)-2-Amino-6-(5-(4-chloro-2-methoxy-5-methylphenylamino)-2-fluorophenyl)-3,5,5,6-tetramethyl-5,6-dihydropyrimidin-4(3H)-one], the IC50 was 0.035 µM.
Work on `CN1C(=O)C(C)(C)[C@@](C)(c2cc(Nc3cccc(C#N)c3)ccc2F)N=C1N` [Example 167, 3-[3-((S)-2-Amino-1,4,5,5-tetramethyl-6-oxo-1,4,5,6-tetrahydro-pyrimidin-4-yl)-4-fluoro-phenylamino]-benzonitrile] yielded an IC50 of 0.073 µM.
In the case of `Cc1ccc(Nc2ccc(F)c([C@@]3(C)N=C(N)N(C)C(=O)C3(C)C)c2)cn1` [Example 171, (S)-2-Amino-6-(2-fluoro-5-(6-methylpyridin-3-ylamino)phenyl)-3,5,5,6-tetramethyl-5,6-dihydropyrimidin-4(3H)-one], the IC50 is reported as 1.8 µM.
`CN1C(=O)C(C)(C)[C@@](C)(c2cc(Nc3ccc(C#N)cc3)ccc2F)N=C1N` [Example 153, (S)-4-(3-(2-Amino-1,4,5,5-tetramethyl-6-oxo-1,4,5,6-tetrahydropyrimidin-4-yl)-4-fluorophenylamino)benzonitrile] showed an IC50 of 0.13 µM.
`CN1C(=O)C(C)(C)[C@@](C)(c2cc(Nc3ccc(C#N)cc3Cl)ccc2F)N=C1N` [Example 168, 4-[3-((S)-2-Amino-1,4,5,5-tetramethyl-6-oxo-1,4,5,6-tetrahydro-pyrimidin-4-yl)-4-fluoro-phenylamino]-3-chloro-benzonitrile] gave an IC50 of 0.014 µM.
`CN1C(=O)C(C)(C)[C@@](C)(c2cc(Nc3ccc(Cl)nc3)ccc2F)N=C1N` [Example 176, (S)-2-Amino-6-(5-(6-chloropyridin-3-ylamino)-2-fluorophenyl)-3,5,5,6-tetramethyl-5,6-dihydropyrimidin-4(3H)-one] was tested, and the IC50 was 0.13 µM.
For `COc1ccc(Nc2ccc(F)c([C@@]3(C)N=C(N)N(C)C(=O)C3(C)C)c2)cn1` [Example 170, (S)-2-Amino-6-(2-fluoro-5-(6-methoxypyridin-3-ylamino)phenyl)-3,5,5,6-tetramethyl-5,6-dihydropyrimidin-4(3H)-one], the IC50 was 0.14 µM.
